From PubChem BioAssay AID1918999 (Molecular Pharmacology Branch, DTP, NCI, 2023)

System: 556581-035-R-J1-PDC complex spheroid growth
Assay: Anticancer human tumor 556581-035-R-J1-PDC patient-derived ovarian carcinoma cell line growth inhibition [AhR]
Details: for IC50: curve of first compound; for viability, T/C: stronger effect = lower value
Method in brief: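 Agents were dosed in half-log steps down from roughly clinical Cmax, or from 10 microM where Cmax was unknown, alone and with AhR antagonists. Read-out: percent test/control growth of tumor spheroids containing HUVEC and MSC stromal cells.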

[1] = second compound 0.1 µM, first compound 0.000949 µM
[2] = second compound 0.1 µM, first compound 0.003 µM
[3] = second compound 0.1 µM, first compound 0.00949 µM
[4] = second compound 0.1 µM, first compound 0.03 µM
[5] = second compound 0.1 µM, first compound 0.0949 µM
[6] = second compound 0.1 µM, first compound 0.3 µM
[7] = second compound 0.316 µM, first compound 0.000949 µM
[8] = second compound 0.316 µM, first compound 0.003 µM
[9] = second compound 0.316 µM, first compound 0.00949 µM
[10] = second compound 0.316 µM, first compound 0.03 µM
[11] = second compound 0.316 µM, first compound 0.0949 µM
[12] = second compound 0.316 µM, first compound 0.3 µM
[13] = second compound 1 µM, first compound 0.000949 µM
[14] = second compound 1 µM, first compound 0.003 µM
[15] = second compound 1 µM, first compound 0.00949 µM
[16] = second compound 1 µM, first compound 0.03 µM
[17] = second compound 1 µM, first compound 0.0949 µM
[18] = second compound 1 µM, first compound 0.3 µM
[19] = second compound 3.16 µM, first compound 0.000949 µM
[20] = second compound 3.16 µM, first compound 0.003 µM
[21] = second compound 3.16 µM, first compound 0.00949 µM
[22] = second compound 3.16 µM, first compound 0.03 µM
[23] = second compound 3.16 µM, first compound 0.0949 µM
[24] = second compound 3.16 µM, first compound 0.3 µM
[25] = second compound 10 µM, first compound 0.000949 µM
[26] = second compound 10 µM, first compound 0.003 µM
[27] = second compound 10 µM, first compound 0.00949 µM
[28] = second compound 10 µM, first compound 0.03 µM
[29] = second compound 10 µM, first compound 0.0949 µM
[30] = second compound 10 µM, first compound 0.3 µM
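Throughout, for viability, T/C: compound exposure lasted 7 days; 100% = DMSO vehicle control growth.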

## CC(C)CC(NC(=O)C(Cc1ccccc1)NC(=O)c1cnccn1)B(O)O (stereo not given) + Cc1ccccc1N=Nc1ccc(NC(=O)c2ccnn2C)c(C)c1
Second compound 0.1 µM
  IC50: 5.78 nM
Second compound 0.316 µM
  IC50: 5.73 nM
Second compound 1 µM
  IC50: 5.9 nM
Second compound 3.16 µM
  IC50: 5.64 nM
Second compound 10 µM
  IC50: 5.97 nM
[1]
  viability, T/C: 91.6%
[2]
  viability, T/C: 117%
[3]
  viability, T/C: 8.91%
[4]
  viability, T/C: 0.21%
[5]
  viability, T/C: 0.17%
[6]
  viability, T/C: 0.27%
[7]
  viability, T/C: 97.2%
[8]
  viability, T/C: 105%
[9]
  viability, T/C: 10.2%
[10]
  viability, T/C: 0.34%
[11]
  viability, T/C: 0.22%
[12]
  viability, T/C: 0.22%
[13]
  viability, T/C: 90.2%
[14]
  viability, T/C: 115%
[15]
  viability, T/C: 13.2%
[16]
  viability, T/C: 0.19%
[17]
  viability, T/C: 0.16%
[18]
  viability, T/C: 0.26%
[19]
  viability, T/C: 88.2%
[20]
  viability, T/C: 100%
[21]
  viability, T/C: 13.6%
[22]
  viability, T/C: 0.16%
[23]
  viability, T/C: 0.17%
[24]
  viability, T/C: 0.22%
[25]
  viability, T/C: 82.3%
[26]
  viability, T/C: 89.1%
[27]
  viability, T/C: 25.9%
[28]
  viability, T/C: 0.35%
[29]
  viability, T/C: 0.31%
[30]
  viability, T/C: 0.28%

## CCc1c2c(nc3ccc(O)cc13)-c1cc3c(c(=O)n1C2)COC(=O)[C@]3(O)CC + Cc1ccccc1N=Nc1ccc(NC(=O)c2ccnn2C)c(C)c1
Second compound 0.1 µM
  IC50: 21.2 nM
Second compound 0.316 µM
  IC50: 17 nM
Second compound 1 µM
  IC50: 18.8 nM
Second compound 3.16 µM
  IC50: 20.5 nM
Second compound 10 µM
  IC50: 22.1 nM
[1]
  viability, T/C: 97.1%
[2]
  viability, T/C: 87.2%
[3]
  viability, T/C: 64.8%
[4]
  viability, T/C: 42%
[5]
  viability, T/C: 27.1%
[6]
  viability, T/C: 12.8%
[7]
  viability, T/C: 98.1%
[8]
  viability, T/C: 86.4%
[9]
  viability, T/C: 64.3%
[10]
  viability, T/C: 36.5%
[11]
  viability, T/C: 18.3%
[12]
  viability, T/C: 12.7%
[13]
  viability, T/C: 98.8%
[14]
  viability, T/C: 82.5%
[15]
  viability, T/C: 64.1%
[16]
  viability, T/C: 41.5%
[17]
  viability, T/C: 23.7%
[18]
  viability, T/C: 16.7%
[19]
  viability, T/C: 84%
[20]
  viability, T/C: 86.5%
[21]
  viability, T/C: 74.6%
[22]
  viability, T/C: 37.2%
[23]
  viability, T/C: 20.7%
[24]
  viability, T/C: 14.1%
[25]
  viability, T/C: 94.5%
[26]
  viability, T/C: 88.3%
[27]
  viability, T/C: 72.9%
[28]
  viability, T/C: 40.8%
[29]
  viability, T/C: 23.2%
[30]
  viability, T/C: 14.2%

## COc1cc(Nc2ncc3c(n2)-c2ccc(Cl)cc2C(c2c(F)cccc2OC)=NC3)ccc1C(=O)O + Cc1ccccc1N=Nc1ccc(NC(=O)c2ccnn2C)c(C)c1
Second compound 0.1 µM
  IC50: > 10000 nM
Second compound 0.316 µM
  IC50: > 10000 nM
Second compound 1 µM
  IC50: > 10000 nM
Second compound 3.16 µM
  IC50: > 10000 nM
Second compound 10 µM
  IC50: > 10000 nM
Second compound 0.1 µM, first compound 0.0316 µM
  viability, T/C: 83.8%
Second compound 0.1 µM, first compound 0.1 µM
  viability, T/C: 72.4%
Second compound 0.1 µM, first compound 0.316 µM
  viability, T/C: 69.2%
Second compound 0.1 µM, first compound 1 µM
  viability, T/C: 61.4%
Second compound 0.1 µM, first compound 3.16 µM
  viability, T/C: 60.4%
Second compound 0.1 µM, first compound 10 µM
  viability, T/C: 59.4%
Second compound 0.316 µM, first compound 0.0316 µM
  viability, T/C: 78%
Second compound 0.316 µM, first compound 0.1 µM
  viability, T/C: 73.5%
Second compound 0.316 µM, first compound 0.316 µM
  viability, T/C: 68.5%
Second compound 0.316 µM, first compound 1 µM
  viability, T/C: 56.6%
Second compound 0.316 µM, first compound 3.16 µM
  viability, T/C: 61.1%
Second compound 0.316 µM, first compound 10 µM
  viability, T/C: 48.7%
Second compound 1 µM, first compound 0.0316 µM
  viability, T/C: 80.5%
Second compound 1 µM, first compound 0.1 µM
  viability, T/C: 73.2%
Second compound 1 µM, first compound 0.316 µM
  viability, T/C: 69%
Second compound 1 µM, first compound 1 µM
  viability, T/C: 62.8%
Second compound 1 µM, first compound 3.16 µM
  viability, T/C: 64.7%
Second compound 1 µM, first compound 10 µM
  viability, T/C: 54.9%
Second compound 3.16 µM, first compound 0.0316 µM
  viability, T/C: 67.2%
Second compound 3.16 µM, first compound 0.1 µM
  viability, T/C: 66.2%
Second compound 3.16 µM, first compound 0.316 µM
  viability, T/C: 57.6%
Second compound 3.16 µM, first compound 1 µM
  viability, T/C: 58.1%
Second compound 3.16 µM, first compound 3.16 µM
  viability, T/C: 58.6%
Second compound 3.16 µM, first compound 10 µM
  viability, T/C: 49.2%
Second compound 10 µM, first compound 0.0316 µM
  viability, T/C: 70.2%
Second compound 10 µM, first compound 0.1 µM
  viability, T/C: 61.9%
Second compound 10 µM, first compound 0.316 µM
  viability, T/C: 62.1%
Second compound 10 µM, first compound 1 µM
  viability, T/C: 66%
Second compound 10 µM, first compound 3.16 µM
  viability, T/C: 57.6%
Second compound 10 µM, first compound 10 µM
  viability, T/C: 56.8%
